# From patent US11396664B2, “Replicative transposon system” (Max-Delbrück-Centrum für Molekulare Medizin in der …, priority 2016, dated 2022)
# Tested on: Helraiser transposase, wild type (WT), SEQ ID NO: 1, consensus Helibat1 Helitron transposase from the bat Myotis lucifugus
# Assay: Colorimetric ATPase assay (ATP hydrolysis, malachite green)
# Format: biochemical
# Conditions: purified transposase; 50 mM HEPES pH 7.5, 100 mM NaCl, 1 mM DTT, 2 mM MgCl2, 37° C; ATP 0.0078 to 1 mM
# Experimental: Protein Expression and Purification
# Point mutations were made using the QuikChange site-directed mutagenesis method (Agilent). Baculovirus production and protein expression were performed by the Protein Expression Laboratory at the National Cancer Institute as follows:
# Cell pellets were resuspended in Nickel affinity column binding buffer (20 mM NaH2PO4 pH 7.4, 500 mM NaCl, 50 mM imidazole, 1 mM TCEP). All subsequent steps were performed at 4° C. Lysis was done by incubating the cells on ice for 30 minutes, then sonication with a Misonix Sonicator 3000 (5×20-sec pulses with 3 minute pause at 82 Watts). […]
# ATP hydrolysis was analyzed by measuring the formation of free phosphate (Pi) as a function of time using procedures adapted from Baykov et al. (Baykov A A, Evtushenko O A, Avaeva S M. A malachite green procedure for orthophosphate determination and its use in alkaline phosphatase-based enzyme immunoassay. Anal Biochem 171, 266-270 (1988)). […] An aliquot (150 μl) of a 1 mM malachite green stock solution was added to each well, and the absorbance at 650 nm was measured using a Molecular Devices Spectramax M5 microplate reader. The amount of phosphate released was calculated by comparison to a standard curve generated using KH2PO4. […]
smiles,measurement,value
Nc1ncnc2c1ncn2[C@@H]1O[C@H](COP(=O)(O)OP(=O)(O)OP(=O)(O)O)[C@@H](O)[C@H]1O [ATP],Km,46 µM
same,kcat (ATP hydrolysis),6.8 ± 0.11 s⁻¹
